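1) Cells in 96-well plates. 2) Compound, 48 h, 5 concentrations. 3) Linear interpolation between surrounding doses. 4) Unreached endpoint = highest concentration. The concentration for full growth arrest is given as TGI.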
How the values were obtained:
Experiment in all cases: NCI tumour cell line growth inhibition, 48 h
[1] = tested on: HCC-2998 colon
[2] = tested on: RXF-631 renal
[3] = tested on: NCI-H226 lung
[4] = tested on: XF 498 CNS
[5] = tested on: ACHN renal
[6] = tested on: KM12 colon
[7] = tested on: CCRF-CEM leukemia
[8] = tested on: NCI-H460 lung
[9] = tested on: 786-0 renal
[10] = tested on: UO-31 renal
[11] = tested on: HL-60(TB) leukemia
[12] = tested on: DMS 273 small cell lung
[13] = tested on: SK-MEL-2 melanoma
[14] = tested on: OVCAR-3 ovarian
[15] = tested on: SNB-75 CNS
[16] = tested on: RXF 393 renal
[17] = tested on: A549 NSCLC
[18] = tested on: SW-620 colon
[19] = tested on: TK-10 renal
[20] = tested on: UACC-62 melanoma
[21] = tested on: HCT-15 colon
[22] = tested on: OVCAR-5 ovarian
[23] = tested on: UACC-257 melanoma
[24] = tested on: LOX IMVI melanoma
[25] = tested on: NCI-H522 lung
[26] = tested on: A498 renal
[27] = tested on: SN12C renal
[28] = tested on: OVCAR-8 ovarian
[29] = tested on: IGROV1 ovarian
[30] = tested on: SNB-78 CNS
[31] = tested on: SK-MEL-28 melanoma
[32] = tested on: DLD-1 colon
[33] = tested on: MALME-3M melanoma
[34] = tested on: U251 CNS
[35] = tested on: EKVX NSCLC
[36] = tested on: HOP-62 NSCLC
[37] = tested on: DMS 114 small cell lung
[38] = tested on: SF-539 CNS
[39] = tested on: HCT-116 colon
[40] = tested on: M19-MEL melanoma
[41] = tested on: OVCAR-4 ovarian
[42] = tested on: SK-OV-3 ovarian
[43] = tested on: SK-MEL-5 melanoma
[44] = tested on: LXFL 529 NSCLC
[45] = tested on: COLO 205 colon
[46] = tested on: K-562 leukemia
[47] = tested on: KM20L2 colon
[48] = tested on: SF-268 CNS
[49] = tested on: M14 melanoma
[50] = tested on: SNB-19 CNS
[51] = tested on: NCI-H23 lung
[52] = tested on: SF-295 CNS
[53] = tested on: HT29 colon
[54] = tested on: HOP-18 NSCLC
[55] = tested on: SR leukemia
[56] = tested on: MOLT-4 leukemia
[57] = tested on: CAKI-1 renal
[58] = tested on: RPMI-8226 leukemia
[59] = tested on: HOP-92 NSCLC

`COC(=O)CCC(NC(=S)N/N=C(\C)c1ccco1)C(=O)OC` (centres undefined) was tested, and the TGI [1] was over 100 µM, the TGI [2] was over 100 µM and the TGI [3] was over 100 µM. It also gave a TGI [4] of over 100 µM, a TGI [5] of over 100 µM and a TGI [6] of over 100 µM. The TGI [7] was over 100 µM, the TGI [8] was over 100 µM and the TGI [9] was over 100 µM. It also gave a TGI [10] of over 100 µM, a TGI [11] of over 100 µM and a TGI [12] of over 100 µM. It also gave a TGI [13] of over 100 µM, a TGI [14] of over 100 µM and a TGI [15] of over 100 µM. For the same compound, the TGI [16] was over 100 µM, the TGI [17] was over 100 µM and the TGI [18] was over 100 µM. For the same compound, the TGI [19] was over 100 µM, the TGI [20] was over 100 µM and the TGI [21] was over 100 µM. The TGI [22] was over 100 µM, the TGI [23] was over 100 µM and the TGI [24] was over 100 µM. The TGI [25] was over 100 µM, the TGI [26] was over 100 µM and the TGI [27] was over 100 µM. For the same compound, the TGI [28] was over 100 µM, the TGI [29] was over 100 µM and the TGI [30] was over 100 µM. It also gave a TGI [31] of over 100 µM, a TGI [32] of over 100 µM and a TGI [33] of over 100 µM. It also gave a TGI [34] of over 100 µM, a TGI [35] of over 100 µM and a TGI [36] of over 100 µM. The TGI [37] was over 100 µM, the TGI [38] was over 100 µM and the TGI [39] was over 100 µM. It also gave a TGI [40] of over 100 µM, a TGI [41] of over 100 µM and a TGI [42] of over 100 µM. For the same compound, the TGI [43] was over 100 µM, the TGI [44] was over 100 µM and the TGI [45] was over 100 µM. The TGI [46] was over 100 µM, the TGI [47] was over 100 µM and the TGI [48] was over 100 µM. It also gave a TGI [49] of over 100 µM, a TGI [50] of over 100 µM and a TGI [51] of over 100 µM. For the same compound, the TGI [52] was over 100 µM, the TGI [53] was over 100 µM and the TGI [54] was over 100 µM.

With `COc1ccc(C(=O)Cc2ccc(Cl)cc2)cc1OC` the TGI [1] was over 100 µM, the TGI [2] was over 100 µM and the TGI [3] was over 100 µM. It also gave a TGI [55] of over 100 µM, a TGI [4] of over 100 µM and a TGI [56] of over 100 µM. It also gave a TGI [5] of over 100 µM, a TGI [57] of over 100 µM and a TGI [7] of over 100 µM. For the same compound, the TGI [8] was over 100 µM, the TGI [10] was over 100 µM and the TGI [11] was over 100 µM. It also gave a TGI [12] of over 100 µM, a TGI [13] of over 100 µM and a TGI [14] of over 100 µM. It also gave a TGI [15] of 86.9 µM, a TGI [16] of over 100 µM and a TGI [17] of over 100 µM. It also gave a TGI [18] of over 100 µM, a TGI [19] of over 100 µM and a TGI [20] of over 100 µM. For the same compound, the TGI [21] was over 100 µM, the TGI [22] was over 100 µM and the TGI [23] was over 100 µM. For the same compound, the TGI [24] was over 100 µM, the TGI [25] was over 100 µM and the TGI [26] was over 100 µM. For the same compound, the TGI [27] was over 100 µM, the TGI [28] was over 100 µM and the TGI [29] was over 100 µM. The TGI [30] was over 100 µM, the TGI [32] was over 100 µM and the TGI [33] was over 100 µM. For the same compound, the TGI [34] was over 100 µM, the TGI [35] was over 100 µM and the TGI [36] was over 100 µM. It also gave a TGI [37] of over 100 µM, a TGI [38] of over 100 µM and a TGI [39] of over 100 µM. For the same compound, the TGI [40] was over 100 µM, the TGI [41] was over 100 µM and the TGI [42] was over 100 µM. It also gave a TGI [43] of over 100 µM, a TGI [44] of over 100 µM and a TGI [58] of over 100 µM. The TGI [46] was over 100 µM, the TGI [47] was over 100 µM and the TGI [48] was over 100 µM. For the same compound, the TGI [49] was over 100 µM, the TGI [50] was over 100 µM and the TGI [51] was over 100 µM. It also gave a TGI [52] of over 100 µM, a TGI [53] of over 100 µM and a TGI [54] of over 100 µM.

Work on `COC(=O)c1cc2cc(OC)c(OC)cc2cc(C(=O)OC)c1=O` yielded a TGI [1] of over 100 µM, a TGI [2] of over 100 µM and a TGI [4] of over 100 µM. The TGI [56] was over 100 µM, the TGI [5] was over 100 µM and the TGI [57] was over 100 µM. The TGI [6] was over 100 µM, the TGI [7] was over 100 µM and the TGI [8] was over 100 µM. For the same compound, the TGI [9] was over 100 µM, the TGI [10] was over 100 µM and the TGI [11] was over 100 µM. It also gave a TGI [12] of over 100 µM, a TGI [13] of over 100 µM and a TGI [14] of over 100 µM. It also gave a TGI [15] of over 100 µM, a TGI [16] of over 100 µM and a TGI [17] of over 100 µM. The TGI [18] was over 100 µM, the TGI [59] was over 100 µM and the TGI [19] was over 100 µM. For the same compound, the TGI [20] was over 100 µM, the TGI [21] was over 100 µM and the TGI [22] was over 100 µM. The TGI [23] was over 100 µM, the TGI [24] was over 100 µM and the TGI [25] was over 100 µM. The TGI [26] was over 100 µM, the TGI [27] was over 100 µM and the TGI [28] was over 100 µM. The TGI [29] was over 100 µM, the TGI [30] was over 100 µM and the TGI [32] was over 100 µM. The TGI [33] was over 100 µM, the TGI [34] was over 100 µM and the TGI [35] was over 100 µM. It also gave a TGI [36] of over 100 µM, a TGI [37] of over 100 µM and a TGI [38] of over 100 µM. The TGI [39] was over 100 µM, the TGI [40] was over 100 µM and the TGI [41] was over 100 µM. For the same compound, the TGI [42] was over 100 µM, the TGI [43] was over 100 µM and the TGI [44] was over 100 µM. The TGI [45] was over 100 µM, the TGI [58] was over 100 µM and the TGI [46] was over 100 µM. The TGI [47] was over 100 µM, the TGI [48] was over 100 µM and the TGI [49] was over 100 µM. It also gave a TGI [50] of over 100 µM, a TGI [51] of over 100 µM and a TGI [52] of over 100 µM. For the same compound, the TGI [53] was over 100 µM and the TGI [54] was over 100 µM.
